The target of test [1] is T1, RXRγ (Homo sapiens, UniProt P48443).
T1 sequence (P48443 1-463): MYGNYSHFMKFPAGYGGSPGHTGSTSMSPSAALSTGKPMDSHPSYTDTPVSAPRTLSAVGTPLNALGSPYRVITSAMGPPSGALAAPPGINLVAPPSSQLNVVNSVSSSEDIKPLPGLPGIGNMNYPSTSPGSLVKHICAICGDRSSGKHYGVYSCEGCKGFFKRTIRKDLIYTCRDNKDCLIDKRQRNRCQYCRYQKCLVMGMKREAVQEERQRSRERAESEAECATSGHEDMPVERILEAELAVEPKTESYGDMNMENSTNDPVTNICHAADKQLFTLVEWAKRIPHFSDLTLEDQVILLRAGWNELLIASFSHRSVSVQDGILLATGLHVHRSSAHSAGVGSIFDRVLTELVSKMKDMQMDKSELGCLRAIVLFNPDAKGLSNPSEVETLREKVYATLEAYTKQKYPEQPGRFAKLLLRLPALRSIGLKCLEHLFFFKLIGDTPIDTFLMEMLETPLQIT
Nature of the test: ligand binding assay, RXRγ. Conditions: read-out: RXR Bind Ki γ. The source says: (§1) Other assays described below, measure the ability of the compounds of the present invention to bind to, and/or activate various retinoid receptor subtypes. When in these assays a compound binds to a given receptor subtype and activates the transcription of a reporter gene through that subtype, then the compound is considered an agonist of that receptor subtype. […] In the below described assays the ability of the compounds to bind to RARα, RARβ, RARγ, RXRα, RXRβ and RXRγ receptors, and the ability or inability of the compounds to activate transcription of a reporter gene through these receptor subtypes can be tested. […] However, some of the compounds of the invention may behave as retinoid antagonists or partial antagonists and/or as inverse agonists. Because of the complex distribution of the different retinoid receptors in various organs of the mammalian body partial agonists and partial antagonists and compounds which have the characteristics of both may lend themselves to particularly useful therapeutic applications and may avoid serious side effects of conventional retinoid drugs.
(§2) A holoreceptor transactivation assay and a ligand binding assay which measure the antagonist/agonist like activity of the compounds of the invention, or their ability to bind to the several retinoid receptor subtypes, respectively, are described in published PCT Application No. WO WO93/11755 (particularly on pages 30-33 and 37-41) published on Jun. 24, 1993, the specification of which is also incorporated herein by reference. A detailed experimental procedure for holoreceptor transactivations has been described by Heyman et al. Cell 68, 397-406, (1992); Allegretto et al. J. Biol. Chem. 268, 26625-26633, and Mangelsdorf et al. The Retinoids: Biology, Chemistry and Medicine, pp 319-349, Raven Press Ltd., New York, which are expressly incorporated herein by reference. The results obtained in this assay are expressed in EC50 numbers, as they are also in the chimeric receptor transactivation assay. The results of ligand binding assay are expressed in Kd numbers. (See Cheng et al. Biochemical Pharmacology Vol. 22 pp 3099-3108, expressly incorporated herein by reference.)
(§3) Table 1 discloses the activity of certain exemplary compounds of the invention in the above-described chimeric receptor transactivation assay, holoreceptor transactivation assay and a ligand binding assays. Particularly, the transactivation data pertaining to RAR receptors were obtained in the chimeric assay, and the data pertaining to transactivation of RXR receptors were obtained in the holoreceptor transactivation assay.

The target of test [2] is T2, RARβ (Homo sapiens, UniProt P10826).
T2 sequence (P10826 1-448 isoform P10826-2): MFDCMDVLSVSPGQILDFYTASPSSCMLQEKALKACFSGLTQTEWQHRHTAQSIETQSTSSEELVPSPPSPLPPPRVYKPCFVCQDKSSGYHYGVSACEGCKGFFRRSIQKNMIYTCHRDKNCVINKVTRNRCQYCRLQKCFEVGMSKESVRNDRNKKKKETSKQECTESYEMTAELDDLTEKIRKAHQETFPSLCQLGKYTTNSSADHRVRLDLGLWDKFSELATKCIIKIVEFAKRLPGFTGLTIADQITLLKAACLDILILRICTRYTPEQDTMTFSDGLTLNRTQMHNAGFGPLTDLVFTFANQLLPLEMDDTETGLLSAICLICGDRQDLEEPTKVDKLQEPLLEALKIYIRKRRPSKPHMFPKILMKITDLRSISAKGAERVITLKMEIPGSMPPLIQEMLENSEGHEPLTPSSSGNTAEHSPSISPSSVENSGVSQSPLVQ
Nature of the test: ligand binding assay, RARβ. Conditions: read-out: RAR Bind Ki β.
From the text: as §1, §2, §3

What is called Ki is a dissociation constant, usually derived from enzyme kinetics or from competition with a known ligand.

With `Cc1cc2c(cc1Nc1ccc(C(=O)O)cc1)N(C(C)C)CCC2(C)C` [Compound 50, 4-(1-Isopropyl-4,4,6-trimethyl-1,2,3,4-tetrahydro-quinolin-7-ylamino)-benzoic acid], in test [1], the Ki is over 1000 nM.
Turning to `CC(C)CN(c1ccc(C(=O)O)cc1)c1ccc2c(c1)N(C(C)C)CCC2(C)C` [Compound 39, 4-[(1-Isopropyl-4,4-dimethyl-1 2,3,4-tetrahydroquinolin-7-yl)isobutylamino]benzoic acid], the Ki was 60 nM in test [1] and over 10 µM in test [2].
On the same counts, the results for `CC(C)N1CCC(C)(C)c2ccc(N(CC3CC3)c3ccc(C(=O)O)cc3)cc21` [Compound 40, 4-[(1-Isolpropyl-4,4-dimethyl-1,2,3,4-tetrahydroquinolin-7-yl)(cylopropylmethyl)amino]benzoic acid] are 34 nM and 24 µM.
Consider `CCN(c1ccc(C(=O)O)cc1)c1cc2c(cc1C)C(C)(C)CCN2C(C)C` [Compound 52, 4-[-(1-Isopropyl-4,4,6-trimethyl-1,2,3,4-tetrahydro-quinolin-7-yl)ethylamino]-benzoic acid], for which the Ki in test [1] is 38 nM.
With `CC(C)CCN(c1ccc(C(=O)O)cc1)c1ccc2c(c1)C(C)(C)CCN2C(C)C` [Compound 14, 4-[(1-Isopropyl-4,4-dimethyl-1,2,3,4-tetrahydroquinolin-6-yl)(3-methylbutyl)amino]-benzoic Acid], the figures for the Ki in test [1] and in test [2] were over 1000 nM and 7.7 µM, respectively.
`CCN(c1ccc(C(=O)O)cc1)c1cc2c(cc1C)N(C(C)C)CCC2(C)C` [Compound 24, 4-[(1-Isopropyl-4,4,7-trimethyl-1,2,3,4-tetrahydroquinolin-6-yl)ethylamino]benzoic acid]: the figures for the Ki in test [1] and in test [2] were over 1000 nM and over 10 µM, respectively.
Taken in the same sequence, the figures for `Cc1cc2c(cc1N(C)c1ccc(C(=O)O)cc1)C(C)(C)CCN2C(C)C` [Compound 22, 4-[(1-Isopropyl-4,4,7-trimethyl-1,2,3,4-tetrahydroquinolin-6-yl)methylamino]benzoic acid] were over 1000 nM and over 10 µM.
Taken in the same sequence, the figures for `CCN(c1ccc(C(=O)O)cc1)c1ccc2c(c1)C(C)(C)CCN2C(C)C` [Compound 12, 4-[(1-Isopropyl-4,4-dimethyl-1,2,3,4-tetrahydroquinolin-6-yl)ethylamino]benzoic acid] were 1300 nM and 7.9 µM.
On the same counts, the results for `CCN(c1ccc(C(=O)O)cc1)c1ccc2c(c1)C(C)(C)CC(=O)N2C(C)C` [Compound 6, 4-[(1-Isopropyl-4,4-dimethyl-2-oxo-1,2,3,4-tetrahydroquinolin-6-yl)ethylamino]benzoic Acid] are over 10000 nM and over 30 µM.
Regarding `Cc1cc2c(cc1N(CC1CC1)c1ccc(C(=O)O)cc1)C(C)(C)CCN2C(C)C` [Compound 26, 4-[(1-Isopropyl-4,4,7-trimethyl-1,2,3,4-tetrahydro-quinolin-6-yl)(cyclopropylmethyl)amino]benzoic acid], the Ki in test [1] was 1300 nM; in test [2], 11 µM.
With `CCN(c1ccc(C(=O)O)cc1)c1ccc2c(c1)N(C(C)C)CCC2(C)C` [Compound 38, 4-[(1-Isopropyl-4,4-dimethyl-1,2,3,4-tetrahydroquinolin-7-yl)ethylamino]benzoic acid], the Ki is 27 nM in test [1] and over 10 µM in test [2].
With `Cc1cc2c(cc1N(C)c1ccc(C(=O)O)cc1)N(C(C)C)CCC2(C)C` [Compound 51, 4-[(1-Isopropyl-4,4,6-trimethyl-1,2,3,4-tetrahydro-quinolin-7-yl)-methyl-amino]-benzoic acid], the inhibition constant Ki in test [1] was 317 nM.
Turning to `CC(C)N1CCC(C)(C)c2cc(N(C)c3ccc(C(=O)O)cc3)ccc21` [Compound 10, 4-[(1-Isopropyl-4,4-dimethyl-1,2,3,4-tetrahydroquinolin-6-yl)methylamino]benzoic Acid], the Ki is over 10000 nM in test [1] and over 10 µM in test [2].
Regarding `CCCN(c1ccc(C(=O)O)cc1)c1cc2c(cc1C)C(C)(C)CCN2C(C)C` [Compound 53, 4-[(1-Isopropyl-4,4,6-trimethyl-1,2,3,4-tetrahydro-quinolin-7-yl)-propyl-amino]-benzoic acid], the Ki in test [1] worked out at 95 nM.

Source of the values: patent US6127382A, “Amines substituted with a tetrahydroquinolinyl group an aryl or heteroaryl group and an alkyl group, having retinoid-like biological activity” (Allergan Sales, Inc., priority 1999, dated 2000).
